Assay results from patent publication US11180486B2, “Indolylkojyl methane analogues, process of preparation thereof and use as inhibitor of cancer cells invasion and metastasis” (Council of Scientific & Industrial Research, priority 2017, dated 2021).

Columns and labels:
MCF7 cells = experiment: Cell viability (MTT) assay; type: cell-based; conditions: Homo sapiens, MCF7, 48 h, 44 h + 4 h, mean ± SD of three experiments, read-out: IC50 values MCF7
Procedure: (§1) Cell Culture and Reagents. The cell lines used in this study were procured from American Type Culture Collection (ATCC), Manassas, USA. MCF7, T47D and fR2 cells were cultured in RPMI-1640 medium, whereas the MDA-MB-231 cells were grown in Leibovitz's (L-15) medium supplemented with 10% fetal bovine serum (Gibco) and 1% penicillin/streptomycin (Sigma) in a humidified CO2 incubator (New Brunswick Galaxy 170 R) with 5% CO2. Reagents such as phenylmethylsulfonyl fluoride (PMSF), dithiothreitol (DTT), DMSO, crystal violet, and Bradford's reagent were purchased from Sigma-Aldrich. Protease inhibitor cocktail was procured from Roche. The antibodies for human GRP78, Par-4, MMP-2, MMP-9, NF-kB, E-cadherin and TIMP-1 were procured from Santa-Cruz Biotechnology. The β-actin antibody and the secondary antibodies such as anti-rabbit IgG and anti-mouse IgG were procured from Sigma-Aldrich.
(§2) Cell Viability Assay. The cell viability was determined by standard MTT assay method. Briefly, MDA-MB-231, MCF7, T47D and fR2 cells were seeded in 96 well tissue culture plates (Nunc) at a density of 3×10^3 cells per well and treated with varying concentrations of the test compounds in triplicates. DMSO was taken as a vehicle and the final concentration of the DMSO was maintained at 0.2% in the culture medium. Doxorubicin was employed as a positive control. After 44 h of incubation, MTT dye solution was added into the medium and cells were incubated for another 4 h at 37° C. in 5% CO2. The amount of coloured formazan derivatives formed was measured by taking optical density (OD) using a microplate reader (TECAN, Infinite M200 Pro) at 570 nm and the percentage cell viability was calculated. The IC50 values were calculated using GraphPad Prism software (Version 5.0). Table 2. Cytotoxicity (IC50) of all synthesized compounds of invention against panel of human breast cancer cell lines (MDA-MB-231, MCF7, T47D) and normal breast epithelial (fR2) cells.

MDA-MB-231 cells = experiment: Cell viability (MTT) assay; type: cell-based; conditions: Homo sapiens, MDA-MB-231, 48 h, 44 h + 4 h, mean ± SD of three experiments, read-out: IC50 values MDA-MB-231
Procedure: as §1, §2

T47D cells = experiment: Cell viability (MTT) assay; type: cell-based; conditions: Homo sapiens, 48 h, 44 h + 4 h, mean ± SD of three experiments
Procedure: as §1, §2

[1] = system: mouse mammary carcinoma (4T1) cells; type: in vivo; conditions: 100 mg/kg b.w. i.p., alternate days for two weeks
Procedure: In Vivo Anti-Tumor and Anti-Metastatic Efficacy Studies. To evaluate the antitumor and antimetastatic effect of 5 in vivo, healthy female Balb/c mice (b.w. 18-23 g) were taken. The experimental protocols were approved by the Institutional Animal Ethics Committee, CPCSEA, of Indian Institute of Integrative Medicine, Jammu. The animals were maintained at 22° C. with a 12 h light-dark cycle and free access to feed and water inside the institutional animal house. Proper care was taken to maintain them in a healthy condition and to avoid any risk of possible pathogenic contaminations. For subcutaneous implantation, the mice were randomized into two groups of 5 mice per group and 1.5 million mouse mammary carcinoma (4T1) cells in serum free RPMI media were injected subcutaneously into the mammary fat pad of each mouse. Either 1 week after the tumor cell implantation or when the tumor volume reached ˜150 mm^3, mice were injected intraperitoneally with either normal saline (NS) or parent compound 1 (100 mg/kg, b.w.) or 5 (30 mg/kg, b.w.) in each alternate days for two weeks. Tumor size was recorded on each alternate days post-cell injection and body weights were recorded once per week. Mice were sacrificed on the 15th day of treatment initiation and tumors were incised for its measurement. Metastatic lung nodules were counted using a dissecting microscope. Lungs were then minced into fine pieces, suspended in medium containing collagenase and kept in 37° C. incubator with vigorous shaking for 2 h. The suspension was then filtered with the help of 70 μm cell strainer (BD, USA) to get the single cell suspension. Then, the suspension was serially diluted for 3-4 times in selection medium containing 6-thioguanine, for the selection of 4T1 cells. Each dilution containing the lung cell suspension was then plated into individual petridishes and incubated at 37° C. and 5% CO2 for the growing of 4T1 cell colonies. After 15 days of incubation, cells were washed with PBS, fixed with methanol and stained with 0.2% crystal violet solution for 1 h. Images of the 4T1 colonies were observed, counted and photographed under an inverted microscope at 20× magnification.

Row | IC50 (MCF7 cells) | IC50 (MDA-MB-231 cells) | IC50 (T47D cells) | melting point | SMILES | decrease in metastatic lung nodules [1] | inhibition in tumor growth ([1]; vs normal saline)
1 | > 100 µM | 40.6 ± 0.621 µM | 43.5 ± 0.203 µM | 120 to 130 °C | CCCCCC(c1oc(CO)cc(=O)c1O)c1c[nH]c2ccccc12 (stereo not shown) [Compound 3, 2-{1-(1H-indol-3-yl)hexyll}-3-hydroxy-6-(hydroxymethyl)-4H-pyran-4-one] |  | 
2 | 45.2 ± 0.348 µM | 43.25 ± 0.416 µM | 43 ± 0.144 µM | 130 to 140 °C | CCCC(c1oc(CO)cc(=O)c1O)c1c[nH]c2ccccc12 (stereo not shown) [Compound 2, 2-(1-(1H-indol-3-yl)butyl)-3-hydroxy-6-(hydroxymethyl)-4H-pyran-4-one] |  | 
3 | 3.93 ± 0.288 µM | 3.84 ± 0.055 µM | 4.3 ± 0.443 µM | 115 to 125 °C | CCCCCCC(c1oc(CO)cc(=O)c1O)c1c[nH]c2ccccc12 (stereo not shown) [Compound 4, 2-(1-(1H-indol-3-yl)heptyl)-3-hydroxy-6-(hydroxymethyl)-4H-pyran-4-one] |  | 

Continued, compound first:

Row | SMILES | IC50 (MCF7 cells) | IC50 (MDA-MB-231 cells) | IC50 (T47D cells) | melting point | decrease in metastatic lung nodules [1] | inhibition in tumor growth ([1]; vs normal saline)
4 | CCCCCCCCCCCC(c1oc(CO)cc(=O)c1O)c1c[nH]c2ccccc12 (stereo not shown) [Compound 8, 2-{1-(1H-indol-3-yl)dodecyl}-3-hydroxy-6-(hydroxymethyl)-4H-pyran-4-one] | > 100 µM | 45.2 ± 0.535 µM | > 100 µM | 105 to 115 °C |  | 
5 | CCCCCCCCCCCCCCCC(c1oc(CO)cc(=O)c1O)c1c[nH]c2ccccc12 (stereo not shown) [Compound 9, 2-{1-(1H-indol-3-yl)hexadecyl}-3-hydroxy-6-(hydroxymethyl)-4H-pyran-4-one] | > 100 µM | 45.7 ± 0.195 µM | > 100 µM | 95 to 105 °C |  | 
6 | CCCCCCCCCC(c1oc(CO)cc(=O)c1O)c1c[nH]c2ccccc12 (stereo not shown) [Compound 6] | > 100 µM | 40.6 ± 0.621 µM | > 100 µM | 110 to 120 °C |  | 
7 | O=c1cc(CO)occ1O [Compound 1, 5-Hydroxy-2-(hydroxymethyl)-4H-pyran-4-one, reference compound] | 94.5 ± 2.68 µM | 87.2 ± 1.52 µM | > 100 µM |  | 16.7% | 23%
8 | CCCCCCCCCCCCCCCCCC(c1oc(CO)cc(=O)c1O)c1c[nH]c2ccccc12 (stereo not shown) [Compound 10, 2-{1-(1H-indol-3-yl)octadecyl}-3-hydroxy-6-(hydroxymethyl)-4H-pyran-4-one] | > 100 µM | 48.5 ± 0.341 µM | > 100 µM | 90 to 100 °C |  | 
9 | COc1cccc2c1C(=O)c1c(O)c3c(c(O)c1C2=O)C[C@@](O)(C(=O)CO)C[C@@H]3O[C@H]1C[C@H](N)[C@H](O)[C@H](C)O1 [DOXO, doxorubicin, reference compound] | 0.085 ± 0.125 µM | 0.22 ± 0.185 µM | 0.081 ± 0.211 µM |  |  | 
10 | CCCCCCCCCCC(c1oc(CO)cc(=O)c1O)c1c[nH]c2ccccc12 (stereo not shown) [Compound 7, 2-{1-(1H-indol-3-yl)undecyl}-3-hydroxy-6-(hydroxymethyl)-4H-pyran-4-one] | > 100 µM | 49.5 ± 0.448 µM | > 100 µM | 110 to 120 °C |  | 
